Assay results taken from ChEMBL document CHEMBL5380850, “Discovery of the First Raptor (Regulatory-Associated Protein of mTOR) Inhibitor as a New Type of Antiadipogenic Agent” (J Med Chem, 2023).
Calls of active or inactive are those of the source. No cut-off for these calls is given here.

Tests used:
[1] = Cytotoxicity against mouse 3T3-L1 cells assessed as reduction in cell viability incubated for 24 hrs by MTT assay; type: toxicity, cell-based
[2] = target: Serine/threonine-protein kinase mTOR (Mus musculus) (UniProt Q9JLN9); experiment: Inhibition of mTOR signalling in mouse 3T3-L1 cells assessed as upregulation of ATG3 expression level at 0.1 to 10 uM incubated for 24 hrs by Western blot analysis; type: cell-based; details: dose 0.1-10 µM
Mus musculus [3] = experiment: Anti-obesity activity in high fat diet-induced obese C57BL/6J mouse assessed as decrease in size of adipocytes in epididymis white adipose tissue at 40 mg/kg, ip administered every two days for 46 days by H and E staining based microscopy; type: functional, organism-based; details: time 46.0 day
[4] = target: Regulatory-associated protein of mTOR (Mus musculus) (UniProt Q8K4Q0); experiment: Binding affinity to Raptor in mouse 3T3-L1 cells assessed thermal stabilization at 10 uM incubated 30 mins by […] analysis
Mus musculus [5] = experiment: Anti-obesity activity in high fat diet-induced obese C57BL/6J mouse assessed as reduction in visceral fat content by measuring epididymis white adipose tissue weight at 40 mg/kg, ip administered every two days for 46 days; type: functional, organism-based; details: time 46.0 day
mTORC1 (Mus musculus) [6] = target: mTORC1 (Mus musculus) (UniProt Q9JLN9); experiment: Inhibition of mTORC1 formation in siRNA mediated Raptor knockdown mouse 3T3-L1 cells assessed as decrease in S6K1 expression level at 10 uM incubated for 24 hrs by Western blot analysis; type: cell-based
Mus musculus [7] = experiment: In vivo inhibition of mTOR signalling in high fat diet-induced obese C57BL/6J mouse model assessed as decrease in mTOR phosphorylation at S2481 in inguen white adipose tissue at 40 mg/kg, ip administered every two days for 46 days by Western blot analysis; type: functional, organism-based; details: time 46.0 day
Mus musculus [8] = experiment: Anti-obesity activity in high fat diet-induced obese C57BL/6J mouse model assessed as reduction in plasma AST level at 40 mg/kg, ip administered every two days for 46 days; type: functional, organism-based; details: time 46.0 day
3T3-L1 [9] = experiment: Anti-adipogenic activity in mouse 3T3-L1 cells assessed as increase in co-localization of lipid droplets and autophagolysosomes at 10 uM by Bodipy and LysoTracker staining based immunofluorescence analysis; type: functional, cell-based
[10] = target: Regulatory-associated protein of mTOR (Homo sapiens, UniProt Q8N122); experiment: Binding affinity to recombinant human Raptor and measured for 200 sec by SPR analysis
3T3-L1 [11] = experiment: Anti-adipogenic activity against mouse 3T3-L1 cells assessed as downregulation of C/EBPdelta protein expression level at 0.1 to 1 uM incubated for 24 hrs by Western blot analysis; type: functional, cell-based; details: dose 0.1-1 µM
3T3-L1 [12] = experiment: Anti-adipogenic activity in SiRNA mediated Raptor knockdown mouse 3T3-L1 cells assessed as FAS expression level at 10 uM by Western blot analysis; type: functional, cell-based
Mus musculus [13] = experiment: Anti-obesity activity in high fat diet-induced obese C57BL/6J mouse model assessed as increase in PGC-1alpha expression level in liver at 40 mg/kg, ip administered every two days for 46 days by immunohistochemical analysis; type: functional, organism-based; details: time 46.0 day
3T3-L1 [14] = experiment: Anti-adipogenic activity against mouse 3T3-L1 cells assessed as downregulation of ACC protein expression level at 0.1 to 1 uM incubated for 6 days by Western blot analysis; type: functional, cell-based; details: dose 0.1-1 µM, time 6.0 day
3T3-L1 [15] = experiment: Anti-adipogenic activity against mouse 3T3-L1 cells assessed as decrease in triglyceride level by Oil Red O staining based spectroscopic analysis; type: functional, cell-based
Mus musculus [16] = experiment: Anti-obesity activity in high fat diet-induced obese C57BL/6J mouse model assessed as reduction in triglyceride level at 40 mg/kg, ip administered every two days for 46 days; type: functional, organism-based; details: time 46.0 day
Mus musculus [17] = experiment: Anti-obesity activity in high fat diet-induced obese C57BL/6J mouse model assessed as increase in […] expression level in inguen white adipose tissue at 40 mg/kg, ip administered every two days for 46 days by immunohistochemical analysis; type: functional, organism-based; details: time 46.0 day
3T3-L1 [18] = experiment: Anti-adipogenic activity against mouse 3T3-L1 cells assessed as downregulation of C/EBPalpha mRNA expression level at 0.1 to 1 uM incubated for 24 hrs by RT-qPCR analysis; type: functional, cell-based; details: dose 0.1-1 µM
3T3-L1 [19] = experiment: Anti-adipogenic activity against mouse 3T3-L1 cells assessed as downregulation of PPARgamma protein expression level at 0.1 to 1 uM incubated for 24 hrs by Western blot analysis; type: functional, cell-based; details: dose 0.1-1 µM
mTORC1 (Mus musculus) [20] = target: mTORC1 (Mus musculus) (UniProt Q9JLN9); experiment: Inhibition of mTORC1 formation in mouse 3T3-L1 cells assessed as decrease in S6K1 expression level at 10 uM incubated for 24 hrs by Western blot analysis; type: cell-based
Mus musculus [21] = experiment: Anti-obesity activity in high fat diet-induced obese C57BL/6J mouse model assessed as reduction in plasma glucose level at 40 mg/kg, ip administered every two days for 14 days; type: functional, organism-based; details: time 14.0 day
3T3-L1 [22] = experiment: Anti-adipogenic activity in mouse 3T3-L1 cells assessed as increase in mCherry-LC3B-labeled autophagosomes at 10 uM by Immunofluorescence analysis; type: functional, cell-based
Mus musculus [23] = experiment: Anti-obesity activity in high fat diet-induced obese C57BL/6J mouse assessed as reduction in visceral fat content by measuring inguen white adipose tissue weight at 40 mg/kg, ip administered every two days for 46 days; type: functional, organism-based; details: time 46.0 day
3T3-L1 [24] = experiment: Anti-adipogenic activity against mouse 3T3-L1 cells assessed as downregulation of FAS mRNA expression level at 0.1 to 1 uM incubated for 6 days by RT-qPCR analysis; type: functional, cell-based; details: dose 0.1-1 µM, time 6.0 day
Mus musculus [25] = experiment: Anti-obesity activity in high fat diet-induced obese C57BL/6J mouse model assessed as increase in COX4 expression level in inguen white adipose tissue at 40 mg/kg, ip administered every two days for 46 days by immunohistochemical analysis; type: functional, organism-based; details: time 46.0 day
[26] = Selectivity index, ratio of IC50 for cytotoxicity against mouse 3T3-L1 cells to EC50 for anti-adipogenic activity against mouse 3T3-L1 cells; type: cell-based; details: read-out: Ratio IC50/EC50
3T3-L1 [27] = experiment: Anti-adipogenic activity against mouse 3T3-L1 cells assessed as downregulation of C/EBPbeta protein expression level at 0.1 to 1 uM incubated for 24 hrs by Western blot analysis; type: functional, cell-based; details: dose 0.1-1 µM
Mus musculus [28] = experiment: Anti-obesity activity in high fat diet-induced obese C57BL/6J mouse model assessed as increase in COX4 expression level in brown adipocyte at 40 mg/kg, ip administered every two days for 46 days by immunohistochemical analysis; type: functional, organism-based; details: time 46.0 day
Mus musculus [29] = experiment: Anti-obesity activity in high fat diet-induced obese C57BL/6J mouse model assessed as increase in glucose clearance at 40 mg/kg, ip administered every two days for 3 weeks pretreated with compound and followed by glucose challenge and measured upto 120 mins by IPGTT assay; type: functional, organism-based
3T3-L1 [30] = experiment: Anti-adipogenic activity against mouse 3T3-L1 cells assessed as downregulation of PPARgamma mRNA expression level at 0.1 to 1 uM incubated for 24 hrs by RT-qPCR analysis; type: functional, cell-based; details: dose 0.1-1 µM
Mus musculus [31] = experiment: Anti-obesity activity in high fat diet-induced obese C57BL/6J mouse assessed as decrease in body weight at 40 mg/kg, ip administered every two days for 46 days (Rvb=52.5%); type: functional; set-up: scale not given: the % may be the effect or the level left; details: time 46 day
3T3-L1 [32] = experiment: Anti-adipogenic activity in SiRNA mediated Raptor knockdown mouse 3T3-L1 cells assessed as decrease in triglyceride level at 10 uM by Oil Red O staining based microscopic analysis; type: functional, cell-based

Chain of Regulatory-associated protein of mTOR (Mus musculus) (Q8K4Q0 whole entry, looked up): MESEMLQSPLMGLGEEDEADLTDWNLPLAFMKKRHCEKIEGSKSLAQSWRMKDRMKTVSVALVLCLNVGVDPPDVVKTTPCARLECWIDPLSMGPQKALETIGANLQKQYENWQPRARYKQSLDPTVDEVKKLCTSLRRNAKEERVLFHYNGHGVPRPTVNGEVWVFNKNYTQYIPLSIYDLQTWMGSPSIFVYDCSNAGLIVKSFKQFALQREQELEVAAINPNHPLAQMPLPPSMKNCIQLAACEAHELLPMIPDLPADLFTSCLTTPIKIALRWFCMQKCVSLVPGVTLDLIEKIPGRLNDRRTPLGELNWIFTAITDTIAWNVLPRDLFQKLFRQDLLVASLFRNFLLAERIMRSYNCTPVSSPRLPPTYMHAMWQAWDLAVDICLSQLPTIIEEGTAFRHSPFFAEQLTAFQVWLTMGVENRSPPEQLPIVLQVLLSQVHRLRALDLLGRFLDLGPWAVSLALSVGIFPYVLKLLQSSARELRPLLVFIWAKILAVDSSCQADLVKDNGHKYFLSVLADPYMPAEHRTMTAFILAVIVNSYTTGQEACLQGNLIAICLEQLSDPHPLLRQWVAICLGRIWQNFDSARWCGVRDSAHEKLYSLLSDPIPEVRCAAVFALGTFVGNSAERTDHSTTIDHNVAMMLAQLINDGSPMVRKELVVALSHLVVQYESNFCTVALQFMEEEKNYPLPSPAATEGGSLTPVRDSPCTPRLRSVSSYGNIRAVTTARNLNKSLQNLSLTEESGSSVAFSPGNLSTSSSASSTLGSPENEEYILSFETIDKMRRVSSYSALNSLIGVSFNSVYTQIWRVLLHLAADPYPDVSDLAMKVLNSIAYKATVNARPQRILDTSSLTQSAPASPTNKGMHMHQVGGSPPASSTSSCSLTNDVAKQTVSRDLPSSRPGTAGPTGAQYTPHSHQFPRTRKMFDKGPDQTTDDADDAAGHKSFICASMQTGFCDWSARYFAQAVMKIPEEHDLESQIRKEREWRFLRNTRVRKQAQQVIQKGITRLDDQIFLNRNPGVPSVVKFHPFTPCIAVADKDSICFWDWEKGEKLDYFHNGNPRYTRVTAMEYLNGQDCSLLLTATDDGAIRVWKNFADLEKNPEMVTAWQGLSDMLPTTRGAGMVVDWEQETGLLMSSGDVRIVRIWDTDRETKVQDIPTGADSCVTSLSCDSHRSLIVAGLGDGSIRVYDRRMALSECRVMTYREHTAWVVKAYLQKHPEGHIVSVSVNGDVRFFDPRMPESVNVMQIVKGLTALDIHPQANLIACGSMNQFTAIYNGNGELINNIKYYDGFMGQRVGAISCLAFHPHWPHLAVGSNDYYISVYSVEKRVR
Chain of Regulatory-associated protein of mTOR (Q8N122 whole entry): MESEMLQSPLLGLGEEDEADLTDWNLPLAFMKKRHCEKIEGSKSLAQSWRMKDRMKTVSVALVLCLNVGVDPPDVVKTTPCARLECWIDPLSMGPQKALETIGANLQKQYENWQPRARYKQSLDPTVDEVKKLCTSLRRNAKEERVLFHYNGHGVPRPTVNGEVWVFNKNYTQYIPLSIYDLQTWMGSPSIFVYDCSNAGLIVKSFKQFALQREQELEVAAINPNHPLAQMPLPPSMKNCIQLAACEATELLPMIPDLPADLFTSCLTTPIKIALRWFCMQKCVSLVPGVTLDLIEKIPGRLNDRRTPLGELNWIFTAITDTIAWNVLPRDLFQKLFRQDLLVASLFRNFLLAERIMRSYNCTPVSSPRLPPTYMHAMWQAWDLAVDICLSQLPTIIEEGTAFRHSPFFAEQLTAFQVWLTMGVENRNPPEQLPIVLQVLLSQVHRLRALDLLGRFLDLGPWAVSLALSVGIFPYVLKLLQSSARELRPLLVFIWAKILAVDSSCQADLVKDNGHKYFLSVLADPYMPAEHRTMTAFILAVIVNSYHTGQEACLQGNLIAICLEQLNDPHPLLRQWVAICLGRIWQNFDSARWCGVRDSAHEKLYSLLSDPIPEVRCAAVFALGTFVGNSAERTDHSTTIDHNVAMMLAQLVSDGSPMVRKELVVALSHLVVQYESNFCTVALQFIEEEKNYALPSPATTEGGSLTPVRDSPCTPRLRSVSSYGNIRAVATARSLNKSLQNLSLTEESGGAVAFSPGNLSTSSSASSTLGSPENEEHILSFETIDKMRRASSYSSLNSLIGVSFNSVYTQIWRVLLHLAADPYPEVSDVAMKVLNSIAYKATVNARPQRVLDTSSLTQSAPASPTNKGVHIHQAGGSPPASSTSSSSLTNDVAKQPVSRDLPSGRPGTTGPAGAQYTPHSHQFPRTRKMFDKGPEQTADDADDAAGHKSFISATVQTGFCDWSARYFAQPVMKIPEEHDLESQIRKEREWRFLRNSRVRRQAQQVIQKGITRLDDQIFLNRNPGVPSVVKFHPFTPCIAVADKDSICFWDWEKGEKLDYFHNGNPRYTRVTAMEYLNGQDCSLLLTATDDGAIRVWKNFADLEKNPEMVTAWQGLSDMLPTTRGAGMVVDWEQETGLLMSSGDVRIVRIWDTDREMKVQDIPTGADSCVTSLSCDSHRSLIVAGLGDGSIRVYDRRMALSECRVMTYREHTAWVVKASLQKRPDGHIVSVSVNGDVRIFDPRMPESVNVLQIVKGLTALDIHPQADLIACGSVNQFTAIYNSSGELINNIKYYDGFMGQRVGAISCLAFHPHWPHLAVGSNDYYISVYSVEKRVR

With `C=C(C)[C@@]12OC3(c4ccccc4)O[C@@H]1[C@@H]1[C@H](O)[C@](Cl)(COC(=O)c4ccccc4)[C@@H](O)[C@]4(O)C(=O)C(C)=C[C@H]4[C@@]1(O3)[C@H](C)[C@H]2OC(C)=O` the IC50 at 24 h [1] was over 100 µM, the inhibition [2] was “Active” and the Activity (Mus musculus [3]) was “Active”. For the same compound, the Activity [4] was “Active”, the Activity (Mus musculus [5]) was “Active” and the inhibition (mTORC1 (Mus musculus) [6]) was “Active”. For the same compound, the inhibition (Mus musculus [7]) was “Active”, the Activity (Mus musculus [8]) was “Active” and the Activity (3T3-L1 [9]) was “inactive”. For the same compound, the Kd [10] was 20.4 µM, the Activity (3T3-L1 [11]) was “Active” and the Activity (3T3-L1 [12]) was “Active”. For the same compound, the Activity (Mus musculus [13]) was “Active”, the Activity (3T3-L1 [14]) was “Active” and the EC50 (3T3-L1 [15]) was 0.097 µM. The Activity (Mus musculus [16]) was “Active”, the Activity (Mus musculus [17]) was “Active” and the Activity (3T3-L1 [18]) was “Active”. The Activity (3T3-L1 [19]) was “Active”, the inhibition (mTORC1 (Mus musculus) [20]) was “Active” and the Activity (Mus musculus [21]) was “Active”. For the same compound, the Activity (3T3-L1 [22]) was “Active”, the Activity (Mus musculus [23]) was “Active” and the Activity (3T3-L1 [24]) was “Active”. For the same compound, the Activity (Mus musculus [25]) was “Active”, the selectivity ratio [26] was over 1030 and the Activity (3T3-L1 [27]) was “Active”. For the same compound, the Activity (Mus musculus [28]) was “Active”, the Activity (Mus musculus [29]) was “Active” and the Activity (3T3-L1 [30]) was “Active”. For the same compound, the Activity (Mus musculus [31]) was 26.8% and the Activity (3T3-L1 [32]) was “Active”.
